What was measured:
KDM1A = experiment: Ex vivo KDM1A target engagement in rat brain and PBMCs; parameters: species or system Sprague-Dawley rats
Experimental: . Native protein extracts of cells or tissues were obtained in presence of 25 nM OG-881 chemoprobe according the protocol described in Mascaró et al..
Luminescent ELISA: for quantification of total amount of KDM1A protein (TOTAL KDM1A), Luminunc Plates Maxisorp (NUNC; #436110) were coated with a monoclonal anti-KDM1A antibody (Abcam; #ab53269) at 2 µg/mL in PBS. For quantification of the fraction not bound to inhibitor (FREE KDM1A), plates were coated with streptavidin (Promega Biotech Ibérica; #Z7041) at 10 µg/mL in PBS. Coating was performed at 4°C O/N. Wells were washed 3 times in PBS, 0.1% Tween-20 and blocked with PBS-BSA 1% (Sigma; #A3059) for 2 hr. A KDM1A calibration curve of full length rKDM1A (Active Motif; #31334) diluted in PBS was included in each plate. Plates were then incubated 1 hr at RT and washed 5 times. […] Plates were centrifuged during 30 sec to 1,500 x g, shaken for 1 min at 100rpm and incubated inside the micropate reader (Infinite 200, Tecan) for 3 min at 25 °C. The relative luminescence units (RLU) readouts were acquired using a 1000 msec integration time and 150 msec settle time.
. […] After raw data processing (robust elimination of outliers according to Grubbs criteria and subtraction of blank signal on technical replicates), the target engagement was calculated as […]

ATPase (Na+/K+) = experiment: CEREP Diversity Panel; type: biochemical; parameters: dose or concentration left out as unconfirmed
Experimental: (§1) […]. MAO-A inhibition at 10 μM was 37%, in line with internal data.

[1] = system: adenylyl cyclase (activator effect); experiment: CEREP Diversity Panel; type: biochemical; parameters: dose or concentration left out as unconfirmed
Experimental: as §1

[2] = system: COMT (catechol- O-methyl transferase); experiment: CEREP Diversity Panel; type: biochemical; parameters: dose or concentration left out as unconfirmed
Experimental: as §1

Mouse recombinant SMOX = molecular target: T1, Mouse recombinant SMOX (Mus musculus, UniProt Q99K82); experiment: SMOX inhibition assay; type: biochemical
T1 construct: gift: Paolo Mariottini, Department of Biology, University of Roma
T1 sequence (Q99K82 whole entry): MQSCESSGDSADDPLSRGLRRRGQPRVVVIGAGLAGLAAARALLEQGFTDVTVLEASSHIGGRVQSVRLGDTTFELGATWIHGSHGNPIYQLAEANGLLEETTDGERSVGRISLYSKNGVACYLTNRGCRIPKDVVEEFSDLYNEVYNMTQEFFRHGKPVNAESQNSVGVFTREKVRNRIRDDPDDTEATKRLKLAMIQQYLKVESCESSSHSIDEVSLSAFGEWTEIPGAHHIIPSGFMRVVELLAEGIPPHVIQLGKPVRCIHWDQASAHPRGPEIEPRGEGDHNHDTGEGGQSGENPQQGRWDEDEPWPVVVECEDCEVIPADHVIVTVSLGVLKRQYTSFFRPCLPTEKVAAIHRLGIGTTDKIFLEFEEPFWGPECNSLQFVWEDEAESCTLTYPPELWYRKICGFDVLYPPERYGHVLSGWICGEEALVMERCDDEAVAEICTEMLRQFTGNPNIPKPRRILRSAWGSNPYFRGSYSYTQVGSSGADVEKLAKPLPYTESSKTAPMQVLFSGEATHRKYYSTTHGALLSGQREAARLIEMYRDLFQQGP
Experimental: Mouse recombinant SMOX [4] was provided by Paolo Mariottini (Department of Biology, University of Roma). The biochemical activity was measured by its ability to oxidize spermine (specific substrate for SMOX) and produce H2O2 using a horseradish peroxidase coupled assay. The assay buffer for the mSMOX reaction was 100 mM Sodium Phosphate pH 8.0. The inhibition was monitored during 10 min in the presence of KM spermine peptide.

brain MAO-A = brain MAO-A (Mus musculus, UniProt Q64133); experiment: in vivo
Sequence of brain MAO-A (Q64133 whole entry): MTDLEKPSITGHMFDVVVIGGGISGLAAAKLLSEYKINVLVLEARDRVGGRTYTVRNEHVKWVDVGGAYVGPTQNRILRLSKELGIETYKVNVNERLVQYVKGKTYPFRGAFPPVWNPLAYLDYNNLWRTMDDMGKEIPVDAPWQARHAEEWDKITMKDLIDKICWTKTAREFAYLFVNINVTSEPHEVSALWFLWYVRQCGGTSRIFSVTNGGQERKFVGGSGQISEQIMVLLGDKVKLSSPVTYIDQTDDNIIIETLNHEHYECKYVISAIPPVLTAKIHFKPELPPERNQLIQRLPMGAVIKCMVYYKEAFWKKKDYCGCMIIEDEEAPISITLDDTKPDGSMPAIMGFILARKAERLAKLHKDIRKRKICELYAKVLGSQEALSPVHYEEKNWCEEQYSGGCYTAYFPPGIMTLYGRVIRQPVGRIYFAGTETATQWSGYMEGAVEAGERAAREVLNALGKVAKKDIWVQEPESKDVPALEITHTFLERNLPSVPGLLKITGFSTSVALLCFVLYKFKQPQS
Experimental: Male CD1 mice (8 weeks of age, 25-30 g) procured from Charles River were housed in the same conditions as in Ex vivo assay of MAO-A inhibition section.
Ex-vivo MAO-A activity was measured essentially as previously described . […] Brain samples were weighed and then thawed and homogenised in 20 volumes of homogenisation buffer after which MAO-A activity was measured. […] Enzyme activity was corrected by subtracting an assay buffer blank and initially expressed in units of nmoles substrate/min. The protein concentration of the homogenates was measured and used to express final enzyme activity in units of nmoles/min/mg protein. All results are expressed as a mean of duplicate determinations. Brains from animals treated acutely were assayed on a different day to those treated for 5 days (chronically).
MAO-A activity was determined using serotonin creatinine sulphate [2-^14C] as outlined above. Raw enzyme activity values (in nmoles substrate/min) were corrected by subtracting an assay buffer blank and were normalized to the total protein concentration (in nmoles/min/mg protein). All results are means of duplicate determinations. Different drug treatments were compared by Oneway-ANOVA with Dunnett analysis.

SAMP8 mice = experiment: Novel Object Recognition Test (NORT); type: in vivo, mouse
Experimental: Both male and female mice from the senescence accelerated strain SAMP8 and its control SAMR1 of different ages (see Table S3 for details) were used in these studies. Mice were breed in the animal facilities of the Pharmacy Faculty (University of Barcelona), maintained in a at 22 ± 2 °C controlled temperature in a 12 hr light / dark cycle (lights on at 8:00 am; 300 lux/0 lux) with ad libitum access to food (2018 TEKLAD, Harlan) and water. Male mice were housed individually (males) or in groups of 4-5 animals (females) in plastic colony boxes with a sawdust bedding material. […] SAMR1 mice treated with vehicle were included as a control. All drugs were administered via drinking water and diluted in vehicle. Drug concentration was calculated weekly in function of body weight and corrected in function of drinking water consumption. Cognitive function was evaluated by NORT, social behavior was evaluated by RI and anxiety and motor function were evaluated by EPM and OF. When necessary, animals were deeply anesthetized (80 mg/kg sodium pentobarbital) and brain samples (hippocampus, (prefrontal) cortex) were micro-dissected and processed according to the downstream analysis.
The protocol was performed as previously described. Briefly, animals were placed in a 90°- two-arm maze. Mice were habituated to the apparatus for 10 min during 3 consecutive days. On day 4, two identical novel objects (A+A or B+B) were placed at the end of each arm and animals performed a 10-min acquisition trial. A 10-min retention trial was carried out 2 hr after the acquisition trial with object A and B. Time exploring the novel (NO) and the familiar object (FO) was measured and a discrimination Index (DI) was defined as (NO-FO)/(NO+FO). In some experiments, a more restrictive threshold was applied and animals exploring less than 5 sec (NO+FO) were excluded from the analysis (Table S3).
Novel Object Recognition Test (NORT): Time exploring the novel (NO) and the familiar object (FO) was measured and a discrimination Index (DI) was defined as (NO-FO)/(NO+FO). In some experiments, a more restrictive threshold was applied and animals exploring less that 5 sec (NO+FO) were excluded from the analysis (Table S3). Open Field (OF): Locomotor activity was analyzed by video-tracking over the captured images using SMART® (v 2.5.21 (rat) or v3.0 (mice), PanLab, SLU, Spain).

Nc1nnc(CN[C@@H]2C[C@H]2c2ccc(OCc3ccccc3)cc2)o1 [ORY-2001, vafidemstat]
time for brain target engagement levels to return to baseline (KDM1A; S2B Fig): ~ 3 days | time to maximum target engagement (KDM1A; rat PBMCs and brain, days of administration): 5 days | % inhibition (ATPase (Na+/K+)): 4% | % inhibition [1]: 0% | % inhibition [2]: 11% | inhibition at 10 µM (Mouse recombinant SMOX): 31% | ex vivo brain MAO-A inhibition, acute setting (brain MAO-A; mice, acute 1 to 100 mg/kg p.o. gavage): only the 100 mg/kg dose led to a significant inhibition | ED50 (brain MAO-A; mouse, po, read-out: ED50 ex vivo brain MAO-A inhibition): ~10 mg/kg | NORT discrimination capacity (SAMP8 mice; 0.32 and 0.96 mg/kg/day (Exp3, Exp4)): completely restored the discrimination capacity | NORT discrimination capacity, short treatment (SAMP8 mice; 5 day treatment at 0.96 mg/kg/day (Exp5)): equally effective as a one month treatment | NORT performance of aged SAMP8 mice (SAMP8 mice; eight month old, treated 4 months (Exp7)): fully rescued the performance | rescue of NORT discrimination deficit (SAMP8 mice; lowest dose (0.11 mg/kg/day)): ~ 50%
